Measurements: patent publication US4559339A, “Indol-3-yl-quinazolino-1,4-benzodiazepin-5,13-diones” (Merck & Co., Inc., priority 1985, dated 1985)
Read-outs that look alike come from different tables or passages of the source.

What was measured:
CCK receptor (brain) = target: T1, CCK receptor (brain) (Cavia porcellus, UniProt H0VZC5); test: CCK receptor binding (brain) method; parameters: species or system Hartley guinea pig; settings: guinea pig cerebral cortex, 25° C., 2 hours; read-out: ^125 I-CCK Brain IC50
T1 construct: The cerebral cortex is dissected and used as a receptor source; from tissue; host or cells: cerebral cortex of male Hartley guinea pig, membrane homogenate
T1 sequence (H0VZC5 1-426): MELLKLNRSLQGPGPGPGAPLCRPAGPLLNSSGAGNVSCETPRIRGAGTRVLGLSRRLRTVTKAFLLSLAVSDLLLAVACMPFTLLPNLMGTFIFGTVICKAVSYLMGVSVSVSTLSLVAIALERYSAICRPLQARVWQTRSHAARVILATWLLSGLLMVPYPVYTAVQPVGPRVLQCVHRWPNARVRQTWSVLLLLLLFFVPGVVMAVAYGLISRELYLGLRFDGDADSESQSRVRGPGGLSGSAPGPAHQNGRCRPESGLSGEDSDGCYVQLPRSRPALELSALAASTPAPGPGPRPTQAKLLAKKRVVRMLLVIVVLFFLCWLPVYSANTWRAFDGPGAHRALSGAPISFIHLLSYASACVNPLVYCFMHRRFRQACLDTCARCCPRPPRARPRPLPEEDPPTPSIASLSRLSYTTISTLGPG
Experimental: (§1) Screening of the novel compounds according to the present invention to determine biological activity and obtain an IC50 value for them, in order to identify significant CCK-antagonism, may be accomplished using an ^125 I-CCK receptor binding assay and in vitro isolated tissue preparations. These tests involve the following:
CCK receptor binding (brain) method
CCK-33 is radiolabeled and the binding is performed according to the description for the pancreas method, with modifications according to Saito et al., J. Neurochem., 37, 483-490, 1981.
Male Hartley guinea pigs (300-500 g) are sacrificed by decapitation, and the brains are removed and placed in ice-cold 50 mM Tris HCl (Trizma-7.4) [pH 7.4 at 25° C.]. The cerebral cortex is dissected and used as a receptor source and each gram of fresh guinea pig brain tissue is homogenized in 10 ml of Tris/Trizma buffer with a Brinkman polytron PT-10. The homogenates are centrifuged at 42,000 g for 15 minutes, then the resulting pellets are resuspended in 80 volumes of binding assay buffer (10 mM N-2-hydroxy-ethylpiperazine-N'-2-ethanesulfonic acid (HEPES), 5 mM MgCl2, 1 mM ethylene glycol-bis-(β-amino-ethyl-ether-N,N'-tetraacetic acid (EGTA), 0.4% BSA and 0.25 mg/ml bacitracin, pH 6.5).
The remainder of the binding assay method is as described for the pancreas method, except that the reaction mixtures are incubated at 25° C. for 2 hours before centrifugation.

CCK receptor (pancreas) [1] = target: T2, CCK receptor (pancreas) (Rattus norvegicus, UniProt P30551); test: CCK receptor binding (pancreas) method; parameters: species or system Sprague-Dawley rat; settings: rat pancreas membranes, 37° C., 30 minutes; read-out: I-CCK-8 Pancreas IC50
T2 construct: The whole pancreas of a male Sprague-Dawley rat; from tissue; host or cells: whole pancreas of male Sprague-Dawley rat, washed membrane homogenate
T2 sequence (P30551 1-444): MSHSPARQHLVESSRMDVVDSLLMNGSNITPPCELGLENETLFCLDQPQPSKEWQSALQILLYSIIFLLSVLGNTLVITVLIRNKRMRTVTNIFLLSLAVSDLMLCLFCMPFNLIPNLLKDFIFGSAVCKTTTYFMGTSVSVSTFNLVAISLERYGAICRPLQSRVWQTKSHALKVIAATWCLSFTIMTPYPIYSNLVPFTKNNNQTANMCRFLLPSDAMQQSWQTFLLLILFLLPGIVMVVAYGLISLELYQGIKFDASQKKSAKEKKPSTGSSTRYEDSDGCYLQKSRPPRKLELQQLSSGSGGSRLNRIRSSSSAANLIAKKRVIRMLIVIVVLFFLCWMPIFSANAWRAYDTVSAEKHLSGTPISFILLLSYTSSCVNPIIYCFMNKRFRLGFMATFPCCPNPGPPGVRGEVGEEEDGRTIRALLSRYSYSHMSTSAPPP
Experimental: as §1
CCK receptor binding (pancreas) method
[…] (J. Biol. Chem., 254, 9349-9351, 1979). Receptor binding is performed according to Innis and Snyder (Proc. Natl. Acad. Sci., 77, 6917-6921, 1980), with the minor modification of adding the additional protease inhibitors, phenyl-methane sulfonyl fluoride and o-phenanthroline, which have no effect on the ^125 I-CCK receptor binding assay.
The whole pancreas of a male Sprague-Dawley rat (200-350 g), which has been sacrificed by decapitation, is dissected free of fat tissue and homogenized in 20 volumes of ice-cold 50 mM Tris HCl (pH 7.7 at 25° C.) with a Brinkman Polytron PT-10. The homogenates are centrifuged at 48,000 g for 10 minutes, then the resulting pellets are resuspended in Tris Buffer, centrifuged as above, and resuspended in 200 volumes of binding assay buffer (50 mM Tris HCl, pH 7.7 at 25° C., 5 mM dithiothreitol, 0.1 mM bacitracin, 1.2 mM phenylmethane sulfonyl fluoride and 0.5 mM o-phenanthroline).
For the binding assay, 25 μl of buffer (for total binding), or unlabeled CCK-8 sulfate sufficient to give a final concentration of 1 μM of CCK-8 (for nonspecific binding), or the compounds of the formula of the compounds according to the instant invention ([…]), are added to 450 μl of the membrane suspensions in microfuge tubes. All assays are run in duplicate or triplicate, and the reaction mixtures are incubated at 37° C. for 30 minutes and centrifuged in a Beckman Microfuge (4 minutes) immediately after adding 1 ml of ice-cold incubation buffer. The supernatant is aspirated and discarded, and the pellets are counted with a Beckman Gamma 5000.

[2] = system: cholecystokinins in the gut; settings: prior compound; cited from earlier work
CCK receptor (pancreas) [3] = target: T2, CCK receptor (pancreas); settings: prior compound, U.S. Pat. No. 4,530,790; cited from earlier work
CCK receptor = settings: structure-function studies; cited from earlier work

Row | SMILES | IC50 (CCK receptor (brain)) [µM] | IC50 (CCK receptor (pancreas) [1]) [µM] | selectivity in inhibiting the function of cholecystokinins [2] | IC50 (CCK receptor (pancreas) [3]) [µM] | CCK-receptor antagonist potency within derivatives of cyclic nucleotides (CCK receptor)
1 | O=C1N[C@@H](Cc2c[nH]c3ccccc23)c2nc3ccccc3c(=O)n2-c2ccccc21 [7β-[(1H-indol-3-yl)methyl]quinazolino(3,2-A) (1,4)benzodiazepin-5,13(6H,7H)dione] | – | – | selective in inhibiting the function of cholecystokinins in the gut | 26 | –
2 | CC(C)C[C@H](NC(=O)OC(C)(C)C)C(=O)n1cc(C[C@@H]2NC(=O)c3ccccc3-n3c2nc2ccccc2c3=O)c2ccccc21 [Example 3, 7-[(1-[2(S)-((1,1-dimethylethoxy)-carbonyl)amino-4-methylpentanoyl]-1H-indol-3-yl)methyl]quinazolino(3,2-A)-1,4-benzodiazepin-5,13-(6H,7H)-dione sesquihydrate] | > 100 | > 100 | – | – | –
3 | CC(C)C[C@H](NC(=O)OC(C)(C)C)C(=O)N1CC(C[C@@H]2NC(=O)c3ccccc3-n3c2nc2ccccc2c3=O)c2ccccc21 (stereo partly drawn) [Example 4, 7-[(1-[2(S)-((1,1-dimethylethoxy)carbonyl)amino-4-methylpentanoyl]-2,3-dihydro-1H-indol-3-yl)methyl]quinazolino(3,2-A)-1,4-benzodiazepin-5,13-(6H,7H)-dione hemihydrate] | > 100 | 3.4 | – | – | –
4 | CC(C)C[C@H](NC(=O)OC(C)(C)C)C(=O)N1CC(C[C@@H]2NC(=O)c3ccccc3N3C(=O)c4ccccc4NC23)c2ccccc21 (stereo partly drawn) [Example 5, 7-[(1-[2(S)-((1,1-dimethylethoxy)carbonyl)amino-4-methylpentanoyl]-2,3-dihydro-1H-indol-3-yl)methyl]quinazolino(3,2-A)-1,4-benzodiazepin-5,13-(5H,7H)-dione hydrate] | > 100 | 19.2 | – | – | –
5 | CC(C)C[C@H](NC(=O)OCc1ccccc1)C(=O)n1cc(C[C@@H]2NC(=O)c3ccccc3-n3c2nc2ccccc2c3=O)c2ccccc21 [Example 10, 7-[(1-[2(S)-phenylmethoxycarbonylamino-4-methylpentanoyl]-1H-indol-3-yl)methyl]quinazolino-(3,2-B)-1,4-benzodiazepin-5,13-(6H,7H)-dione] | > 100 | > 100 | – | – | –
6 | CCCC(=O)Nc1nc2c(ncn2[C@@H]2O[C@@H]3COP(=O)(O)O[C@H]3[C@H]2OC(=O)CCC)c(=O)[nH]1 [dibutyryl cyclic GMP] | – | – | – | – | most potent

More lines, main results first:

Row | IC50 (CCK receptor (brain)) [µM] | IC50 (CCK receptor (pancreas) [1]) [µM] | SMILES | selectivity in inhibiting the function of cholecystokinins [2] | IC50 (CCK receptor (pancreas) [3]) [µM] | CCK-receptor antagonist potency within derivatives of cyclic nucleotides (CCK receptor)
7 | > 100 | 16.5 | CC(C)C[C@@H](NC(=O)OC(C)(C)C)C(=O)N1CC(C[C@@H]2NC(=O)c3ccccc3-n3c2nc2ccccc2c3=O)c2ccccc21 (single isomer, unassigned; isomer 1) [Example 6] | – | – | –
8 | 15 | 49 | CC(C)C[C@@H](NC(=O)OC(C)(C)C)C(=O)N1CC(C[C@@H]2NC(=O)c3ccccc3N3C(=O)c4ccccc4NC23)c2ccccc21 (single isomer, unassigned; isomer 1) [Example 8] | – | – | –
9 | > 100 | > 100 | CC(C)C[C@@H](NC(=O)OC(C)(C)C)C(=O)N1CC(C[C@@H]2NC(=O)c3ccccc3-n3c2nc2ccccc2c3=O)c2ccccc21 (single isomer, unassigned; isomer 2) [Example 7] | – | – | –
10 | 100 | 34 | CC(C)C[C@@H](NC(=O)OC(C)(C)C)C(=O)N1CC(C[C@@H]2NC(=O)c3ccccc3N3C(=O)c4ccccc4NC23)c2ccccc21 (single isomer, unassigned; isomer 2) [Example 9] | – | – | –
11 | > 100 | 12 | O=C1N[C@@H](Cc2c[nH]c3ccccc23)C2Nc3ccccc3C(=O)N2c2ccccc21 (some centres unmarked) [Example 1, 7,7A-dihydro-7-(1H-indol-3-yl)methylquinazolino(3,2-B)-1,4-benzodiazepin-5,13-(6H,9H)-dione monohydrate] | – | – | –
12 | > 100 | 27 | O=C1N[C@@H](CC2CNc3ccccc32)c2nc3ccccc3c(=O)n2-c2ccccc21 (some centres unmarked) [Example 2, 7-[(2,3-dihydro-1H-indol-3-yl)methyl]-quinazolino(3,2-A)-1,4-benzodiazepin-5,13-(6H,7H)-dione hemihydrate] | – | – | –
